The experiment deals with eyelids. As to the kind of experiment: topical application to the eyelids, eyelid retraction / eye-widening effect. The class given is in vivo. Particulars: topically applied, alone or in combination. The text has this: Topical treatments to which the current application is directed include ointments, creams, and solutions that contain one or more of the compounds travoprost, unoprostone, latanoprost, and bimatoprost, alone or in combination, and/or one or more chemically-related compounds and may also include pure forms of various additional types of prostaglandin, synthetic prostaglandin, and synthetic prostaglandin anologues. These ointments and solutions are topically applied to eyelids in order to treat ptosis and/or to improve facial appearance. The ointments and solution may include, in addition to the above-mentioned active ingredients, stabilizers, buffering compounds, salts, carriers, viscosity enhancers, colorants, emollients, emulsifiers, bactericidal and germicidal agents, preservatives, and other ingredients that improve shelf life, application, consistency, and compatibility with topical application, among other things. […] Either pure prostaglandin, synthetic prostaglandin, or synthetic prostaglandin analogues may be rubbed into the eyelid tissues or a relatively concentrated solution of prostaglandin in any of various organic solvents, including ethanol, or ethanol-water mixtures, can be applied to produce the effect. Prostaglandin, synthetic prostaglandin, or synthetic prostaglandin analogs may be additionally included in various eye shadows and other cosmetic products that are routinely applied to eyelids in order to produce the eye-widening cosmetic effect, as well as in many different mixtures, suspensions, solutions, powders, ointments, creams, and other substances.

SMILES strings stand for the structures.

Turning to `CCCCCCCC(=O)CC[C@@H]1[C@@H](C/C=C\CCCC(=O)OC(C)C)[C@@H](O)C[C@H]1O` [unoprostone, isopropyl (Z)-7-[(1R,2R,3R,5S)-3,5-dihydroxy-2-(3-oxodecyl)cyclopentyl]hept-5-enoic acid], the “eyelid retraction (ameliorating ptosis and/or improving facial appearance)” value (from here on “eyelid retraction”) is “cause the eyelids to retract more completely”.

`CC(C)OC(=O)CCCC=CCC1C(O)CC(O)C1C=CC(O)COc1cccc(C(F)(F)F)c1` (stereo not shown) [travoprost, propan-2-yl 7-[3,5-dihydroxy-2-[3-hydroxy-4-[3-(trifluoromethyl)phenoxy]-but-1-enyl]-cyclopentyl]hept-5-enoate]: the “eyelid retraction” value is on record as “cause the eyelids to retract more completely”.

Take `CC(C)OC(=O)CCC/C=C\C[C@@H]1[C@@H](CC[C@@H](O)CCc2ccccc2)[C@H](O)C[C@@H]1O` [latanoprost, isopropyl (Z)-7-[(1R,2R,3R,5S)-3,5-dihydroxy-2-[(3R)3-hydroxy-5-phenylpentyl]-cyclopentyl]hept-5-enoate]: the “eyelid retraction” value is on record as “cause the eyelids to retract more completely”.

On to `CCNC(=O)CCCC=CCC1C(O)CC(O)C1C=CC(O)CCc1ccccc1` (stereo not shown) [bimatoprost, 7-[3,5-dihydroxy-2-(3-hydroxy-5-phenyl-pent-1-enyl)-cyclopentyl]-N-ethyl-hept-5-enamide], for which the “eyelid retraction” value is “cause the eyelids to retract more completely”.

For the origin of these results see US20150157642A1, “COSMETIC METHOD FOR CHANGING THE APPEARANCE OF EYES” (priority 2011, published 2015).
